Test results published in ChEMBL document CHEMBL1147216, “Parallel synthesis and SAR study of novel oxa-steroids as potent and selective progesterone receptor antagonists” (Bioorg Med Chem Lett, 2007).

Tests used:
Homo sapiens = species: Homo sapiens; assay: Selectivity of human progesterone receptor over human glucocorticoid receptor
Glucocorticoid receptor = target: T1, Glucocorticoid receptor (Homo sapiens, UniProt P04150); assay: Antagonist activity at human glucocorticoid receptor assessed as inhibition of corticoid-induced transcription in human A549 cells by GRE-linked luciferase reporter gene assay; type: functional, cell-based
T1 sequence (P04150 whole entry): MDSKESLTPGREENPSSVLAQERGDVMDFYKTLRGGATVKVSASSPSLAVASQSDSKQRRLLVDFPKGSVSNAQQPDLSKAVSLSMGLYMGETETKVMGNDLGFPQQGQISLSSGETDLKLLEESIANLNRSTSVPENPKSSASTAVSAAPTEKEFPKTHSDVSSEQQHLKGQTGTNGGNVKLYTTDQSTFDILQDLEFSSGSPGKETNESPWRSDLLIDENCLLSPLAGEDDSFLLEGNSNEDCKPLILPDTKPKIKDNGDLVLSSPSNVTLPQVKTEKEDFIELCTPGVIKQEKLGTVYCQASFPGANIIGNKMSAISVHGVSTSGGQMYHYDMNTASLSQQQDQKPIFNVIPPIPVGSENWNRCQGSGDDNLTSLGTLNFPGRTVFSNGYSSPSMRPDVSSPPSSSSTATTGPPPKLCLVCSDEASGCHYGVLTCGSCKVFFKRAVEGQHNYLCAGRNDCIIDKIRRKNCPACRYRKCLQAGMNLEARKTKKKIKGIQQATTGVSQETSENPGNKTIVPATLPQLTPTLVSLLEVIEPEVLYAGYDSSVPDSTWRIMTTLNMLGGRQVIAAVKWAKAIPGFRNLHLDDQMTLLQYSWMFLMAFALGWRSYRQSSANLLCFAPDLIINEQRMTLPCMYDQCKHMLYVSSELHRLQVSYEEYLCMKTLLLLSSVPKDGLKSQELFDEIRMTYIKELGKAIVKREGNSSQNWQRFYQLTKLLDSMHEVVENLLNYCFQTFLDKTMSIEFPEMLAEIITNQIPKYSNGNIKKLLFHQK

Progesterone receptor = target: T2, Progesterone receptor (Homo sapiens, UniProt P06401); assay: Antagonist activity at human progesterone receptor assessed as inhibition of alkaline phosphatase activity in human T47D cells; type: functional, cell-based
T2 sequence (P06401 whole entry): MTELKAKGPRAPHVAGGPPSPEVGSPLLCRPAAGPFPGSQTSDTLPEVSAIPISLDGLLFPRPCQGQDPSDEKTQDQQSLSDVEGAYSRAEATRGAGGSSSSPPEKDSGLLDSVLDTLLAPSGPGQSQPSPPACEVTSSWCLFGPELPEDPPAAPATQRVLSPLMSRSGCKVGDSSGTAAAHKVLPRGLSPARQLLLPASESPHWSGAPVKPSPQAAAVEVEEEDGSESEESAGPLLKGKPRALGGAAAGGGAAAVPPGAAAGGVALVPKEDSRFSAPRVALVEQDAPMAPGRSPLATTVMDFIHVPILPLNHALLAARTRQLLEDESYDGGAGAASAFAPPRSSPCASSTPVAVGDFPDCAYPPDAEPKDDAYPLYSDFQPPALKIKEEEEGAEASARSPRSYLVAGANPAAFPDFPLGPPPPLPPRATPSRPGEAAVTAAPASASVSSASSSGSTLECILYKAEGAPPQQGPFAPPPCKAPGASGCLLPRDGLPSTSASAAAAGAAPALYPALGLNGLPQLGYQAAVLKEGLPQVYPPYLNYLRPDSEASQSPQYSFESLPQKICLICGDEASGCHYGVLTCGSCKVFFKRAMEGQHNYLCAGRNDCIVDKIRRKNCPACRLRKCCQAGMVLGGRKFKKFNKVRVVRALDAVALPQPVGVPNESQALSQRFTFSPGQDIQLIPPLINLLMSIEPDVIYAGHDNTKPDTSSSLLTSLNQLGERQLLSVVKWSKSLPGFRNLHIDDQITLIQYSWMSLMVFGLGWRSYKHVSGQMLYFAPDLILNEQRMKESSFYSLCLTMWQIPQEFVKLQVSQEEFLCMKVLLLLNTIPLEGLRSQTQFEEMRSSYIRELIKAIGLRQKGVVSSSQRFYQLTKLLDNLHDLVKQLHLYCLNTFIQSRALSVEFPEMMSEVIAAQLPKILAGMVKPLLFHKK

**Q.** `CN(C)c1ccc([C@H]2C[C@@]3(C)[C@@H](CC[C@@]3(O)C#Cc3ccccc3C(F)(F)F)[C@@H]3OCC4=CC(=O)CCC4=C32)cc1` was tested. Which Ratio IC50 (Homo sapiens) did it give?
**A.** 16

**Q.** What about the IC50 (Glucocorticoid receptor) of the same molecule?
**A.** 0.051 µM

**Q.** What about the IC50 (Progesterone receptor) of the same molecule?
**A.** 0.0032 µM

**Q.** How did the Ratio IC50 (Homo sapiens) turn out when `CN(C)c1ccc([C@H]2C[C@@]3(C)[C@@H](CC[C@@]3(O)C#Cc3ccsc3)[C@@H]3OCC4=CC(=O)CCC4=C32)cc1` was run?
**A.** 35

**Q.** What about the IC50 (Glucocorticoid receptor) of the same molecule?
**A.** 0.056 µM

**Q.** And the IC50 (Progesterone receptor)?
**A.** 0.0016 µM

**Q.** With `CN(C)c1ccc([C@H]2C[C@@]3(C)[C@@H](CC[C@@]3(O)C#Cc3cc(F)cc(F)c3)[C@@H]3OCC4=CC(=O)CCC4=C32)cc1` as the molecule, how does the Ratio IC50 (Homo sapiens) read?
**A.** 38

**Q.** And the IC50 (Glucocorticoid receptor)?
**A.** 0.0344 µM

**Q.** What about the IC50 (Progesterone receptor) of the same molecule?
**A.** 0.00091 µM

**Q.** Which results are given for `CN(C)c1ccc([C@H]2C[C@@]3(C)[C@@H](CC[C@@]3(O)C#Cc3cccc(Cl)c3)[C@@H]3OCC4=CC(=O)CCC4=C32)cc1`?
**A.** Ratio IC50 (Homo sapiens): 4; IC50 (Glucocorticoid receptor): 0.0489 µM; IC50 (Progesterone receptor): 0.0125 µM

**Q.** `Cc1ccccc1C#C[C@]1(O)CC[C@H]2[C@@H]3OCC4=CC(=O)CCC4=C3[C@@H](c3ccc(N(C)C)cc3)C[C@@]21C` was tested. Which Ratio IC50 (Homo sapiens) did it give?
**A.** 20

**Q.** What about the IC50 (Glucocorticoid receptor) of the same molecule?
**A.** 0.113 µM

**Q.** What about the IC50 (Progesterone receptor) of the same molecule?
**A.** 0.0058 µM

**Q.** With `CC#C[C@]1(O)CC[C@H]2[C@@H]3OCC4=CC(=O)CCC4=C3[C@@H](c3ccc(N(C)C)cc3)C[C@@]21C` as the molecule, how does the Ratio IC50 (Homo sapiens) read?
**A.** 12

**Q.** With `CN(C)c1ccc([C@H]2C[C@@]3(C)[C@@H](CC[C@@]3(O)C#Cc3ccncc3)[C@@H]3OCC4=CC(=O)CCC4=C32)cc1` as the molecule, how does the Ratio IC50 (Homo sapiens) read?
**A.** 6

**Q.** And the IC50 (Glucocorticoid receptor)?
**A.** 0.247 µM

**Q.** And the IC50 (Progesterone receptor)?
**A.** 0.039 µM

**Q.** Which Ratio IC50 (Homo sapiens) does the source give for `CN(C)c1ccc([C@H]2C[C@@]3(C)[C@@H](CC[C@@]3(O)C#Cc3ccccc3)[C@@H]3OCC4=CC(=O)CCC4=C32)cc1` here?
**A.** 217

**Q.** With `CN(C)c1ccc([C@H]2C[C@@]3(C)[C@@H](CC[C@@]3(O)C#Cc3ccccc3Br)[C@@H]3OCC4=CC(=O)CCC4=C32)cc1` as the molecule, how does the Ratio IC50 (Homo sapiens) read?
**A.** 7

**Q.** What about the IC50 (Glucocorticoid receptor) of the same molecule?
**A.** 0.0627 µM

**Q.** And the IC50 (Progesterone receptor)?
**A.** 0.0086 µM

**Q.** Which results are given for `CN(C)c1ccc([C@H]2C[C@@]3(C)[C@@H](CC[C@@]3(O)C#Cc3ccc(Cl)cc3)[C@@H]3OCC4=CC(=O)CCC4=C32)cc1`?
**A.** Ratio IC50 (Homo sapiens): 71; IC50 (Glucocorticoid receptor): 0.0435 µM; IC50 (Progesterone receptor): 0.00061 µM

**Q.** Which results are given for `COc1ccc(C#C[C@]2(O)CC[C@H]3[C@@H]4OCC5=CC(=O)CCC5=C4[C@@H](c4ccc(N(C)C)cc4)C[C@@]32C)cc1`?
**A.** Ratio IC50 (Homo sapiens): 25; IC50 (Glucocorticoid receptor): 0.0803 µM; IC50 (Progesterone receptor): 0.0032 µM

**Q.** What does the source list for `CN(C)c1ccc([C@H]2C[C@@]3(C)[C@@H](CC[C@@]3(O)C#Cc3cccc(F)c3)[C@@H]3OCC4=CC(=O)CCC4=C32)cc1`?
**A.** Ratio IC50 (Homo sapiens): 57; IC50 (Glucocorticoid receptor): 0.0566 µM; IC50 (Progesterone receptor): 0.001 µM

**Q.** For `CN(C)c1ccc([C@H]2C[C@@]3(C)[C@@H](CC[C@@]3(O)C#Cc3cccnc3)[C@@H]3OCC4=CC(=O)CCC4=C32)cc1`, which Ratio IC50 (Homo sapiens) is on record?
**A.** 16

**Q.** What about the IC50 (Glucocorticoid receptor) of the same molecule?
**A.** 0.342 µM

**Q.** What about the IC50 (Progesterone receptor) of the same molecule?
**A.** 0.021 µM

**Q.** With `CN(C)c1ccc([C@H]2C[C@@]3(C)[C@@H](CC[C@@]3(O)C#Cc3ccccc3Cl)[C@@H]3OCC4=CC(=O)CCC4=C32)cc1` as the molecule, how does the Ratio IC50 (Homo sapiens) read?
**A.** 59

**Q.** What about the IC50 (Glucocorticoid receptor) of the same molecule?
**A.** 0.0648 µM

**Q.** And the IC50 (Progesterone receptor)?
**A.** 0.0011 µM

**Q.** Which Ratio IC50 (Homo sapiens) does the source give for `CN(C)c1ccc([C@H]2C[C@@]3(C)[C@@H](CC[C@@]3(O)C#Cc3ccc(Br)cc3)[C@@H]3OCC4=CC(=O)CCC4=C32)cc1` here?
**A.** 33

**Q.** What about the IC50 (Glucocorticoid receptor) of the same molecule?
**A.** 0.0313 µM

**Q.** And the IC50 (Progesterone receptor)?
**A.** 0.00094 µM

**Q.** For `CN(C)c1ccc([C@H]2C[C@@]3(C)[C@@H](CC[C@@]3(O)C#Cc3ccc(F)cc3)[C@@H]3OCC4=CC(=O)CCC4=C32)cc1`, which Ratio IC50 (Homo sapiens) is on record?
**A.** 139

**Q.** And the IC50 (Glucocorticoid receptor)?
**A.** 0.0376 µM

**Q.** What about the IC50 (Progesterone receptor) of the same molecule?
**A.** 0.00027 µM

**Q.** Which Ratio IC50 (Homo sapiens) does the source give for `CN(C)c1ccc([C@H]2C[C@@]3(C)[C@@H](CC[C@@]3(O)C#Cc3ccc(C(F)(F)F)cc3)[C@@H]3OCC4=CC(=O)CCC4=C32)cc1` here?
**A.** 148

**Q.** What about the IC50 (Glucocorticoid receptor) of the same molecule?
**A.** 0.111 µM

**Q.** What about the IC50 (Progesterone receptor) of the same molecule?
**A.** 0.00075 µM

**Q.** With `CN(C)c1ccc([C@H]2C[C@@]3(C)[C@@H](CC[C@@]3(O)C#Cc3ccccn3)[C@@H]3OCC4=CC(=O)CCC4=C32)cc1` as the molecule, how does the Ratio IC50 (Homo sapiens) read?
**A.** 5

**Q.** What about the IC50 (Glucocorticoid receptor) of the same molecule?
**A.** 0.175 µM

**Q.** What about the IC50 (Progesterone receptor) of the same molecule?
**A.** 0.034 µM

**Q.** How did the Ratio IC50 (Homo sapiens) turn out when `CN(C)c1ccc([C@H]2C[C@@]3(C)[C@@H](CC[C@@]3(O)C#Cc3ccc(C(C)(C)C)cc3)[C@@H]3OCC4=CC(=O)CCC4=C32)cc1` was run?
**A.** 3

**Q.** And the IC50 (Glucocorticoid receptor)?
**A.** 0.0658 µM

**Q.** What about the IC50 (Progesterone receptor) of the same molecule?
**A.** 0.0195 µM

**Q.** Which Ratio IC50 (Homo sapiens) does the source give for `CN(C)c1ccc([C@H]2C[C@@]3(C)[C@@H](CC[C@@]3(O)C#Cc3cccc(C(F)(F)F)c3)[C@@H]3OCC4=CC(=O)CCC4=C32)cc1` here?
**A.** 17

**Q.** And the IC50 (Glucocorticoid receptor)?
**A.** 0.0454 µM

**Q.** What about the IC50 (Progesterone receptor) of the same molecule?
**A.** 0.0027 µM

**Q.** With `CN(C)c1ccc([C@H]2C[C@@]3(C)[C@@H](CC[C@@]3(O)C#Cc3ccc(C#N)cc3)[C@@H]3OCC4=CC(=O)CCC4=C32)cc1` as the molecule, how does the Ratio IC50 (Homo sapiens) read?
**A.** 11

**Q.** And the IC50 (Glucocorticoid receptor)?
**A.** 0.0413 µM

**Q.** What about the IC50 (Progesterone receptor) of the same molecule?
**A.** 0.0037 µM

**Q.** Which results are given for `Cc1cccc(C#C[C@]2(O)CC[C@H]3[C@@H]4OCC5=CC(=O)CCC5=C4[C@@H](c4ccc(N(C)C)cc4)C[C@@]32C)c1`?
**A.** Ratio IC50 (Homo sapiens): 13; IC50 (Glucocorticoid receptor): 0.0363 µM; IC50 (Progesterone receptor): 0.0029 µM

**Q.** Which results are given for `Cc1ccc(C#C[C@]2(O)CC[C@H]3[C@@H]4OCC5=CC(=O)CCC5=C4[C@@H](c4ccc(N(C)C)cc4)C[C@@]32C)cc1`?
**A.** Ratio IC50 (Homo sapiens): 14; IC50 (Glucocorticoid receptor): 0.0221 µM; IC50 (Progesterone receptor): 0.0016 µM

**Q.** What does the source list for `CN(C)c1ccc([C@H]2C[C@@]3(C)[C@@H](CC[C@@]3(O)C#Cc3ccccc3F)[C@@H]3OCC4=CC(=O)CCC4=C32)cc1`?
**A.** Ratio IC50 (Homo sapiens): 47; IC50 (Glucocorticoid receptor): 0.0651 µM; IC50 (Progesterone receptor): 0.0014 µM
